Reference: the supplement of paper PMC11061612

Key:
[1] = system: SW982 (Other Solid Carcinomas); assay: combination Emax (second highest fraction inhibited in the dose matrix, 72 h); higher = more inhibition; extreme values may be limits of the assay
In short: (§1)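 Cell lines grown in DMEM/F12 or RPMI with 10% FBS were plated in 1536-well plates and held 24 hours at 37°C, 5% CO2 before 72 hours of exposure to two-drug dose matrices, with DMSO typically at 0.2%. CellTiter-Glo 2.0 luminescence gave viability, which was converted to inhibition. Vehicle wells were set to 0 and blank wells to 1. Combination Emax is the second-highest inhibition in the matrix, and Bliss excess is the observed combination effect minus the expected EA + EB − EA·EB, where EA and EB are the single-agent effects.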

[2] = system: EFO-21 (Ovarian Carcinoma); assay: as above
In short: as §1

[3] = system: NCI-H650 (Lung Adenocarcinoma); assay: as above
In short: as §1

[4] = system: NCI-H1355 (Lung Adenocarcinoma); assay: as above
In short: as §1

[5] = system: SW872 (Other Solid Carcinomas); assay: as above
In short: as §1

[6] = system: G-401 (Other Solid Carcinomas); assay: as above
In short: as §1

[7] = system: DU-145 (Prostate Carcinoma); assay: as above
In short: as §1

[8] = system: COLO-668 (Small Cell Lung Carcinoma); assay: as above
In short: as §1

[9] = system: SKN (Other Solid Carcinomas); assay: as above
In short: as §1

[10] = system: MOG-G-UVW (Low Grade Glioma); assay: as above
In short: as §1

[11] = system: SNU-387 (Hepatocellular Carcinoma); assay: as above
In short: as §1

[12] = system: CADO-ES1 (Ewing's Sarcoma); assay: as above
In short: as §1

[13] = system: LC-1-sq (Squamous Cell Lung Carcinoma); assay: as above
In short: as §1

[14] = system: KMRC-1 (Kidney Carcinoma); assay: as above
In short: as §1

[15] = system: NCI-H2122 (Lung Adenocarcinoma); assay: as above
In short: as §1

[16] = system: NCI-H1838 (Lung Adenocarcinoma); assay: as above
In short: as §1

[17] = system: HCC2998 (Colorectal Carcinoma); assay: as above
In short: as §1

[18] = system: HCC1937 (Breast Carcinoma); assay: as above
In short: as §1

[19] = system: SK-LU-1 (Lung Adenocarcinoma); assay: Bliss excess, mean over the matrix (fraction); higher = more synergy
In short: as §1

[20] = system: SKN (Other Solid Carcinomas); assay: as above
In short: as §1
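Wherever Bliss excess, mean over the matrix is given: after 72 h of two-drug dosing.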

Row | SMILES | combination Emax [1] | combination Emax [2] | combination Emax [3] | combination Emax [4] | combination Emax [5] | combination Emax [6] | combination Emax [7] | combination Emax [8] | combination Emax [9] | combination Emax [10] | combination Emax [11] | combination Emax [12] | combination Emax [13] | combination Emax [14] | combination Emax [15] | combination Emax [16] | combination Emax [17] | combination Emax [18] | Bliss excess [19] | Bliss excess [20]
1 | CN(C)CCCOc1ccc(-c2ccc3ncc4c(c3c2)n(C2CCOCC2)c(=O)n4C)cn1 [AZD0156] + O=C(c1cc(Cc2n[nH]c(=O)c3ccccc23)ccc1F)N1CCN(C(=O)C2CC2)CC1 [Olaparib] (first compound max 3 µM, partner max 3 µM) | 0.4 | 0.252 | 0.149 | 0.305 | 0.272 | 0.3 | 0.0116 | 0.179 | 0.188 | 0.632 | 0.405 | 0.739 | 0.184 | 0.151 | 0.355 | 0.21 | 0.257 | 0.228 | -0.017 | 0.0023
2 | CN(C)CCCOc1ccc(-c2ccc3ncc4c(c3c2)n(C2CCOCC2)c(=O)n4C)cn1 [AZD0156] + CCN(CCO)CCCOc1ccc2c(Nc3cc(CC(=O)Nc4cccc(F)c4)[nH]n3)ncnc2c1 [AZD2811] (first compound max 1 µM, 7x7, partner max 1 µM) | 0.548 | 0.116 | 0.124 | 0.216 | 0.0742 | 0.309 | 0.134 | 0.0922 | 0.042 | 0.615 | 0.207 | 0.323 | 0.257 | 0.13 | 0.358 | 0.263 | 0.183 | 0.159 | -0.0518 | -0.0358
3 | Cn1cnc2c(F)c(Nc3ccc(Br)cc3Cl)c(C(=O)NOCCO)cc21 [Selumetinib] + C[C@@H]1COCCN1C2=NC(=NC(=C2)C3(CC3)[S@](=N)(=O)C)C4=C5C=CNC5=NC=C4 [AZD6738] (first compound max 10 µM, 7x7, partner max 10 µM) | 0.593 | 0.255 | 0.619 | 0.596 | 0.276 | 0.684 | 0.347 | 0.735 | 0.423 | 0.691 | 0.454 | 0.822 | 0.684 | 0.373 | 0.972 | 0.374 | 0.899 | 0.421 | -0.116 | 0.0406
4 | C=CCn1c(=O)c2cnc(Nc3ccc(N4CCN(C)CC4)cc3)nc2n1-c1cccc(C(C)(C)O)n1 [AZD1775] + C1CN(CCC1(C(=O)N[C@@H](CCO)C2=CC=C(C=C2)Cl)N)C3=NC=NC4=C3C=CN4 [Capivasertib] (first compound max 3 µM, partner max 3 µM) | 0.674 | 0.515 | 0.786 | 0.646 |  | 0.646 | 0.449 | 0.545 | 0.576 | 0.891 | 0.687 | 0.621 | 0.761 | 0.593 | 0.931 | 0.501 | 0.831 | 0.873 | 0.0164 | -0.0375
5 | CCN(CCO)CCCOc1ccc2c(Nc3cc(CC(=O)Nc4cccc(F)c4)[nH]n3)ncnc2c1 [AZD2811] + C=CCn1c(=O)c2cnc(Nc3ccc(N4CCN(C)CC4)cc3)nc2n1-c1cccc(C(C)(C)O)n1 [AZD1775] (first compound max 1 µM, partner max 1 µM) | 0.742 | 0.472 | 0.301 | 0.568 | 0.289 | 0.566 | 0.251 | 0.42 | 0.236 | 0.771 | 0.575 | 0.454 | 0.864 | 0.184 | 0.897 | 0.483 | 0.599 | 0.471 | -0.0132 | -0.0278
6 | COc1nnc2ccc(N3CCC(c4ccc(OCCN5CCN(C)C(=O)[C@H]5C)cc4)CC3)nn12 [AZD5153] + Cn1cnc2c(F)c(Nc3ccc(Br)cc3Cl)c(C(=O)NOCCO)cc21 [Selumetinib] (first compound max 1 µM, 7x7, partner max 10 µM) | 0.789 | 0.439 | 0.656 | 0.483 | 0.784 | 0.841 | 0.28 | 0.899 | 0.65 | 0.658 | 0.514 | 0.444 | 0.677 | 0.346 | 1 | 0.394 | 0.95 | 0.396 | 0.0022 | -0.0084
7 | CC(=O)c1c(C)c2cnc(Nc3ccc(N4CCNCC4)cn3)nc2n(C2CCCC2)c1=O [Palbociclib] + Cn1cnc2c(F)c(Nc3ccc(Br)cc3Cl)c(C(=O)NOCCO)cc21 [Selumetinib] (first compound max 10 µM, 7x7, partner max 10 µM) | 0.579 | 0.245 | 0.36 | 0.325 | 0.169 | 0.859 | 0.12 | 0.363 | 0.349 | 0.523 | 0.221 | 0.265 | 0.235 | 0.218 | 0.954 | 0.321 | 0.781 | 0.214 | -0.0422 | 0.0085
